In US10463646B2, “Micellar polymer-flavonoid conjugate nanocomplex” (Agency for Science, Technology and Research, priority 2014, dated 2019):

Experiments:
[1] = rat; cited from earlier work
[2] = 0.05 M phosphate-buffered saline (PBS) (pH 7.4) at 37° C.; cited from earlier work
[3] = Body weight in the ACHN xenograft oral study; assay type: in vivo, mouse; conditions: oral gavage daily
Experimental: (§1) To study the toxicity and therapeutic effect, in vivo studies were conducted on the micellar nanocomplexes. A subcutaneous renal cell carcinoma model was established. Adult female Balb/c athymic, immunoincompetent nude mice (average weight=19 g, age=6-8 weeks) were used.
To investigate the therapeutic effect of SU/PEG-mEGCG MNC via oral administration, a xenograft tumor model was established by inoculating 4×10^6 ACHN cells suspended in 100 μl of PBS and 100 μl of Matrigel (BD Bioscience) subcutaneously into the root of the right thigh of the mouse. Once the tumors reached a volume of 200 mm^3, the animals were divided into four groups for oral gavage of various solutions (n=8 per group) daily for 5 weeks: control (citrate buffer pH5), SU/PEG-mEGCG 8:1 (SU at 15 mg/kg), SU at 15 and 40 mg/kg. Tumors were measured twice weekly with a digital caliper, and the tumor volumes (mm^3) were calculated from the following formula: volume=(length×width^2)/2 (FIGS. 16 and 17).

[4] = Body weight / toxicity in the A498-luc xenograft study; assay type: in vivo, mouse
Experimental: as §1
To study the therapeutic effect of SU/PEG-EGCG micellar nanocomplexes by intravenous injection, a xenograft tumor model was established by inoculating 6×10^6 A498-luc cells subcutaneously into the root of the left thigh of the mouse. On day 6 after tumor inoculation, the animals were divided into four groups for tail vein injection of various solutions (n=8 per group) twice weekly for 5 weeks, while one group received daily SU gavaging at 60 mg/kg. For the tail vein injection, a volume of 200 μl of sample solution was used.
To monitor bioluminescent signals from A498-luc cells, isoflurane gas-anesthetized animals were injected intraperitoneally with 200 μl of D-luciferin (5 mg ml^−1, Promega) in PBS, and placed on a warmed stage (30° C.) inside the camera box of the IVIS imaging system (Xenogen, Alameda, Calif., USA) with a CCD camera. […] Images and measurements of luminescent signals were acquired and analyzed with the Xenogen imaging software v3.2 and quantified as photons/s. Tumor size and body weight were measured on a weekly basis. […]

O=C(O[C@@H]1Cc2c(O)cc(O)cc2O[C@@H]1c1cc(O)c(O)c(O)c1)c1cc(O)c(O)c(O)c1 [EGCG, (−)-Epigallocatechin-3-gallate]
effect of EGCG administration on plasma concentrations of SU [1]: markedly reduced | half-life [2]: less than 30 minutes

CCN(CC)CCNC(=O)c1c(C)[nH]c(/C=C2\C(=O)Nc3ccc(F)cc32)c1C [SU, Sunitinib]
weight loss ([3]; SU at 15 mg/kg): not observed | body weight ([3]; SU at 40 mg/kg): significant weight loss | body weight ([4]; daily oral gavage 60 mg/kg, one week after commencement of treatment): significant weight loss | toxicity of oral dose ([4]; mouse, in vivo, po, 60 mg/kg/day): too toxic
